Where a name gives a salt, the structure may show the parent alone. Read-outs that look alike come from different tables or passages of the source.
Legend:
[1] = human, in vivo
[2] = test system: patients with atrial fibrillation or atrial flutter; assay: ATHENA clinical study, patients with beta-blockers baseline medication; format: in vivo
Protocol: The relative risk (RR) was estimated using Cox's […] regression model.
The relative risk (RR) is the ratio of the rates of occurrence of a hospitalization or of a death among the patients on dronedarone, relative to the patients on placebo.
The percentage reduction x of a given event (hospitalization, death, cardiovascular death, etc.) is calculated in the following way: x=1−relative risk. Results Relating to the Prevention of Cardiovascular Hospitalization or Death

healthy male subjects = assay: Propranolol/dronedarone interaction study: pharmacodynamics, electrocardiogram and vital signs at rest and during sub-maximal exercise (Example 2); format: in vivo, human (healthy male subjects)
Protocol: (§1) All treatments were administered in fed conditions.
Pharmacodynamics: Resting vital signs were summarized by the synthetic parameter AUC0-8 and analyzed for “treatment effects and chronological (“time”) effects using repeated measures analysis of variance. Exercise vital signs were analyzed in a similar manner; the electrocardiogram exercise data were not formally analyzed and presented using descriptive statistics.

[3] = Metoprolol/dronedarone interaction study: plasma pharmacokinetics of metoprolol (Example 1); conditions: dronedarone 400 mg BID + metoprolol 200 mg OD; CYP2D6 extensive metabolizer subjects
[4] = test system: healthy male caucasian subjects; assay: Metoprolol/dronedarone interaction study: pharmacodynamics, myocardial contractility (Example 1); format: in vivo, human (healthy male caucasian subjects); conditions: dronedarone 800 mg BID added on top of metoprolol 200 mg OD; p=0.0002
Protocol: as §1
The pharmacodynamic analyses were based on the change in Day 5 and Day 13 measurements, using a one-way analysis of variance (ANOVA) model with term for dose, for both primary and secondary endpoints; estimates and 95% confidence intervals (CI) of the difference in mean CHGDay13-5 between dronedarone dose groups and the placebo group were derived within the ANOVA framework. As the sample size calculation was based on the comparison of the highest dronedarone dose versus placebo, pairwise comparison were performed without adjustment of the overall treatment first type error rate. Safety evaluation was based upon a review of individual values and descriptive statistics (listings, summary tables, graphics).

CYP2D6 = molecular target: T1, CYP2D6 (Homo sapiens, UniProt P10635); assay: CYP2D6 inhibition in vivo, from metoprolol interaction (Example 1); set-up: species or system human (CYP2D6 extensive metabolizer subjects); conditions: dronedarone 400 mg BID, metoprolol 200 mg OD as substrate
T1 construct: endogenous in cells; host or cells: healthy human volunteers in vivo (endogenous enzyme, CYP2D6 extensive metabolizers)
Protocol: as §1
The interaction ratio is lower than the existing 3-(Cmax) to 6-fold (AUC) difference in metoprolol exposure between poor and extensive CYP2D6 metabolizers.

clinical = conditions: male, human, in vivo
[5] = human, in vivo; remark: listed apart in the source
[6] = existing difference, quoted for comparison; cited from earlier work
[7] = 1628 patients with beta-blockers baseline medication, placebo 673 of 1641
[8] = versus placebo, Cox model, beta-blockers baseline medication
[9] = versus placebo, beta-blockers baseline medication

T1 sequence (P10635 whole entry): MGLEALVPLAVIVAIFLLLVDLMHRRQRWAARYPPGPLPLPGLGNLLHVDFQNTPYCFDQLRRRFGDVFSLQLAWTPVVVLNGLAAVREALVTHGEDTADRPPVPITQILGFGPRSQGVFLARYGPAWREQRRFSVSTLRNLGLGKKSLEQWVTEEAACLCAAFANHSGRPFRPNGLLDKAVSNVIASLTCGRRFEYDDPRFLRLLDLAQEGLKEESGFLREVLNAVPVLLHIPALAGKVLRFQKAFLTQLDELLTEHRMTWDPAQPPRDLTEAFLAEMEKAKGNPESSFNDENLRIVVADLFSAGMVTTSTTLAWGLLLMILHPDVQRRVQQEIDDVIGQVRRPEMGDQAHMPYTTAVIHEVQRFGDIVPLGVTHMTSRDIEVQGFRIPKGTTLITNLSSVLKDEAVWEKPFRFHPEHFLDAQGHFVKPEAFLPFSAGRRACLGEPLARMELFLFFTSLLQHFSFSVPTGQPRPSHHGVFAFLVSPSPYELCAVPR

CCCCNCCCOc1ccc(C(=O)c2c(CCCC)oc3ccc(NS(C)(=O)=O)cc23)cc1 [SR35021]
AUC0-24 [1]: 768.6 (278.4) ng · h/ml
Cmax [1]: 85.9 (28.8) ng/ml
tmax [1]: 5.13 (0.72) h

CCCCc1oc2ccc(NS(C)(=O)=O)cc2c1C(=O)c1ccc(OCCCN(CCCC)CCCC)cc1 [dronedarone hydrochloride]
death due to stroke, events reported ([2]; 1628 patients with beta-blockers baseline medication, placebo 11 of 1641): 10 events
sudden cardiac death, events reported ([2]; 1628 patients with beta-blockers baseline medication, placebo 25 of 1641): 9 events
hospitalization for congestive heart failure (CHF), events reported ([2]; 1628 patients with beta-blockers baseline medication, placebo 96 of 1641): 85 events
cardiovascular hospitalization or death, events reported [2, 7]: 553 events
death, events reported [2, 7]: 553 events
relative risk of cardiovascular hospitalization or death [2, 8]: 0.777
relative risk of death [2, 8]: 0.777
relative risk of death due to stroke [2, 8]: 0.909
relative risk of hospitalization for CHF [2, 8]: 0.888
relative risk of sudden cardiac death [2, 8]: 0.362
decrease of CHF [2, 9]: 12%
decrease of cardiovascular hospitalization or death [2, 9]: 23%
decrease of death [2, 9]: 23%
decrease of death due to stroke [2, 9]: 10%
decrease of sudden cardiac death [2, 9]: 64%

CCCCc1oc2ccc(NS(C)(=O)=O)cc2c1C(=O)c1ccc(OCCCN(CCCC)CCCC)cc1 [dronedarone, 2-n-Butyl-3-[4-(3-di-n-butylaminopropoxy)benzoyl]-5-methylsulphonamidobenzofuran]
Resting diastolic blood pressure, change (healthy male subjects; single dose): −3%
Resting heart rate, change (healthy male subjects; single dose): 2%
Resting systolic blood pressure, change (healthy male subjects; single dose): −5%
diastolic blood pressure during sub-maximal exercise, change from baseline (healthy male subjects; single dose): −2%
heart rate during sub-maximal exercise, change from baseline (healthy male subjects; single dose): −3%
systolic blood pressure during sub-maximal exercise, change from baseline (healthy male subjects; single dose): −2%
PQ interval, change from baseline (healthy male subjects; single oral administration): increase
T-wave amplitude, change from baseline (healthy male subjects; single oral administration): increase
effect on alpha hydroxymetoprolol exposures [3]: without significant effect
risk of bradycardia ([2]; patients using both dronedarone and beta-blockers except sotalol): no clinically significant increase
reduction in Vcfmean (myocardial contractility) [4]: -0.28 s⁻¹
increase of steady-state propranolol (80 mg OD) exposure ([1]; male, 7 days): 1.2-1.3 fold
inhibition of CYP2D6 in vivo (CYP2D6): weak inhibitor
AUC(0-t) (clinical; AUC0-24): 983 ng·h/mL
Cmax (clinical; Cmax): 140 ng/mL
tmax (clinical; tmax): 3.63 h

COCCc1ccc(OCC(O)CNC(C)C)cc1 (stereo not shown) [metoprolol]
metoprolol Cmax and AUC0-24h after 8 days of treatment [5]: significantly higher
AUC0-24 ([5]; male): 1541 (1563) ng · h/mL
AUC0-24 ratio estimate (day 13/day 5) and 90% CI ([5]; male): 1.29 [1.08-1.55]
Cmax ([5]; male): 100.6 (86.4) ng/mL
Cmax ratio estimate (day 13/day 5) and 90% CI ([5]; male): 1.34 [1.08-1.66]
increase in AUC0-24 ([5]; male): 1.6 fold
increase in Cmax ([5]; male): 1.8 fold
tmax ([5]; male): 4.0 h
difference in metoprolol exposure (AUC) between poor and extensive CYP2D6 metabolizers [6]: 6 fold
difference in metoprolol exposure (Cmax) between poor and extensive CYP2D6 metabolizers [6]: 3 fold

CC(C)NCC(O)COc1cccc2ccccc12 (stereo not shown) [propranolol]
magnitude of the PR prolongation (healthy male subjects; after repeated administration, p<0.001): 3.9%
magnitude of the T-wave increase (healthy male subjects; after repeated administration, p=0.001): 28.3%
reduction of HR (healthy male subjects; at steady state): −8.9%
mean change from baseline in QT (healthy male subjects; based on AUC0-8 h, at steady state): 3.6%
mean change from baseline in QTc (healthy male subjects; based on AUC0-8 h, at steady state, p<0.001): −1.9%
QT interval, change from baseline (resting electrocardiogram) (healthy male subjects; repeated daily dosing): 4%
QTc interval, change from baseline (resting electrocardiogram) (healthy male subjects; repeated daily dosing): −2%
T-wave amplitude, change from baseline (resting electrocardiogram) (healthy male subjects; repeated daily dosing): 28%
PQ interval, change from baseline (resting electrocardiogram) (healthy male subjects; repeated once daily dosing): 4%
Resting electrocardiogram heart rate, change compared to baseline (healthy male subjects; repeated once daily dosing): −9%
Resting diastolic blood pressure, change (healthy male subjects; repeated oral administration): −10%
Resting heart rate, change (healthy male subjects; repeated oral administration): −8%
Resting systolic blood pressure, change (healthy male subjects; repeated oral administration): −5%
diastolic blood pressure during sub-maximal exercise, change from baseline (healthy male subjects; repeated oral administration): −2%
heart rate during sub-maximal exercise, change from baseline (healthy male subjects; repeated oral administration): −16%
systolic blood pressure during sub-maximal exercise, change from baseline (healthy male subjects; repeated oral administration): −12%
Resting diastolic blood pressure, change (healthy male subjects; single dose): −4%
Resting heart rate, change (healthy male subjects; single dose): −10%
Resting systolic blood pressure, change (healthy male subjects; single dose): −3%
diastolic blood pressure during sub-maximal exercise, change from baseline (healthy male subjects; single dose): 2%
heart rate during sub-maximal exercise, change from baseline (healthy male subjects; single dose): −17%
systolic blood pressure during sub-maximal exercise, change from baseline (healthy male subjects; single dose): −13%
AUC0-12 [1]: 318.75 (178.62) ng · h/ml
AUClast [1]: 360.85 (210.30) ng · h/ml
Cmax [1]: 59.79 (33.77) ng/ml
tmax [1]: 2.19 (0.66) h

Reference: patent publication US8602215B2, “Methods for reducing the risk of an adverse dronedarone/beta-blockers interaction in a patient suffering from atrial fibrillation” (Sanofi, priority 2010, dated 2013)
